Assay results: patent US20230040357A1, “PHARMACEUTICAL COMPOSITION AND HEALTH FUNCTIONAL FOOD FOR PREVENTING, AMELIORATING OR TREATING DIABETES CONTAINING WASP EXTRACT AS ACTIVE INGREDIENT” (Andong National University Industry-Academic cooperation …, priority 2021, published 2023)
“And” between values parts separate entries of the source, which are not always exact repeats. Equal values may be shown once.

System: human erythrocytes
Assay: human erythrocyte hemolytic activity
Type: cell-based
Conditions: 37° C., 30 minutes
Protocol: In order to evaluate the acute toxicities of the wasp extracts, the human erythrocyte hemolytic activities of the wasp extracts were evaluated, and the results of the evaluation are shown in Table 3 below. At this time, the hemolytic activity was evaluated according to a previous report (Son Ho-Yong et al., 2014, Korean J. Microbiol. Biotechnol. 42: 285-292). Briefly, 100 μl of human erythrocytes were washed three times with PBS and added to a 96-well microplate, and 100 μl of a sample solution at various concentrations was added thereto and then allowed to react at 37° C. for 30 minutes. Thereafter, the reaction solution was centrifuged at 1,500 rpm for 10 minutes, and 100 μl of the supernatant was transferred to a fresh microtiter plate, and then the degree of hemoglobin leakage following hemolysis was measured at 414 nm. DMSO (2%) was used as a solvent control for the sample, and Triton X-100 (1 mg/ml) was used as an experimental control for hemolysis of erythrocytes. Hemolytic activity was calculated using the following equation.
(%) Hemolysis=[(Abs. S−Abs. C)/(Abs. T−Abs. C)]×100
Abs. S: absorbance of sample-added group
Abs. C: absorbance of DMSO-added group
Abs. T: absorbance of Triton X-100-added group

C[C@@H]1[C@H](O)[C@@H](C)/C=C/C=C/C=C/C=C/C=C/C=C/C=C/[C@H](O[C@@H]2O[C@H](C)[C@@H](O)[C@H](N)[C@@H]2O)C[C@@H]2O[C@](O)(C[C@@H](O)C[C@@H](O)[C@H](O)CC[C@@H](O)C[C@@H](O)CC(=O)O[C@H]1C)C[C@H](O)[C@H]2C(=O)O [Amphotericin B]
Human erythrocyte hemolytic activity (0.0032 mg/ml): 6.54 ± 0.9% | Human erythrocyte hemolytic activity (0.0063 mg/ml): 21.6 ± 3.7% | Human erythrocyte hemolytic activity (0.0125 mg/ml): 48.2 ± 5.9% | Human erythrocyte hemolytic activity (0.05 mg/ml): 72.4 ± 5.2% | Human erythrocyte hemolytic activity (0.1 mg/ml): 95.8 ± 0.3%

Triton X-100
Human erythrocyte hemolytic activity (1.0 mg/ml): 100% and 100.0 ± 0.1%
